Measured values as given in patent US11274083B2, “Substituted thiophenyl uracils, salts thereof and the use thereof as herbicidal agents” (Syngenta Crop Protection AG, priority 2017, dated 2022).

Key:
Assay type in all cases: in vivo
Matricaria inodora [1] = assay: Herbicidal action pre-emergence, greenhouse pot test; settings: application rate 320 g/ha
Description: Seeds of mono- and dicotyledonous weeds and crop plants were laid out in plastic or organic plant pots and covered with soil. The compounds of the invention formulated in the form of wettable powders (WP) or as emulsion concentrates (EC) were then applied to the surface of the covering soil as an aqueous suspension or emulsion with addition of 0.5% additive at a water application rate equivalent to 600 L/ha. After the treatment, the pots were placed in a greenhouse and kept under good growth conditions for the test plants. After about 3 weeks, the efficacy of the preparations was scored visually as a percentage by comparison with untreated controls. For example, 100% efficacy=plants have died. 0% efficacy=like control plants. Tables B1 to B17 below show the efficacies of selected compounds of the general formula (I) […] aforementioned trial method.

Zea mays = assay: Crop compatibility post-emergence, greenhouse pot test
Method: (§1) Seeds of mono- and dicotyledonous weed plants and crop plants were laid out in sandy loam soil in plastic or wood-fiber pots, covered with soil and grown under controlled growth conditions in a greenhouse. 2 to 3 weeks after sowing, the trial plants were treated at the one-leaf stage. The compounds of the invention formulated in the form of wettable powders (WP) or as emulsion concentrates (EC) were then sprayed onto the green parts of the plant as an aqueous suspension or emulsion with addition of 0.5% additive at a water application rate equivalent to 600 L/ha. After the trial plants had stood for about 3 weeks in the greenhouse, under optimal growth conditions, the effect of the preparations was scored visually by comparison with untreated controls. For example, 100% efficacy=plants have died, 0% efficacy=like control plants.
(§2) Crop plant compatibilities were also scored correspondingly.
(§3) The effects observed are reported here on selected crop plants by comparison, with the untreated controls (values in %).

Triticum aestivum = assay: as above
Method: as §1, §2, §3

Oryza sativa = assay: as above
Method: as §1, §2, §3

Veronica persica [2] = assay: Herbicidal action pre-emergence, greenhouse pot test; settings: application rate 320 g/ha
Description: (§4) Seeds of mono- and dicotyledonous weeds and crop plants were laid out in plastic or organic plant pots and covered with soil. The compounds of the invention formulated in the form of wettable powders (WP) or as emulsion concentrates (EC) were then applied to the surface of the covering soil as an aqueous suspension or emulsion with addition of 0.5% additive at a water application rate equivalent to 600 L/ha. After the treatment, the pots were placed in a greenhouse and kept under good growth conditions for the test plants. After about 3 weeks, the efficacy of the preparations was scored visually as a percentage by comparison with untreated controls. For example, 100% efficacy=plants have died. 0% efficacy=like control plants. Tables B1 to B17 below show the efficacies of selected compounds of the general formula (I) according to tables I.1 to I.50 on various harmful plants and an application rate corresponding to 320 g/ha or lower that were obtained by the aforementioned trial method.

Viola tricolor [3] = assay: as above; settings: application rate 320 g/ha
Description: as §4

Polygonum convolvulus [4] = assay: as above; settings: application rate 320 g/ha
Description: as §4

Avena fatua = assay: as above; settings: application rate 320 g/ha
Description: as §4

Stellaria media [5] = assay: as above; settings: application rate 320 g/ha
Description: as §4

Echinochloa crus-galli [6] = assay: as above; settings: application rate 320 g/ha
Description: as §4

Amaranthus retroflexus [7] = assay: as above; settings: application rate 80 g/ha
Description: as §4

Lolium rigidum = assay: as above; settings: application rate 320 g/ha
Description: as §4

Setaria viridis [8] = assay: as above; settings: application rate 320 g/ha
Description: as §4

Pharbitis purpurea [9] = assay: as above; settings: application rate 320 g/ha
Description: as §4

Hordeum murinum = assay: as above; settings: application rate 320 g/ha
Description: as §4

Abutilon theophrasti [10] = assay: as above; settings: application rate 320 g/ha
Description: as §4

Alopecurus myosuroides [11] = assay: as above; settings: application rate 320 g/ha
Description: as §4

Veronica persica [12] = assay: Herbicidal action post-emergence, greenhouse pot test; settings: application rate 80 g/ha
Method: as §1, with “plants. Tables A1 to A16 below show the efficacies of selected compounds of the general formula (I) according to tables I.1 to I.50 on various harmful plants and an application rate corresponding to 80 g/ha or lower that were obtained by the aforementioned trial method.” for “plants.”

Polygonum convolvulus [13] = assay: as above; settings: application rate 80 g/ha
Method: as §1, with “plants. Tables A1 to A16 below show the efficacies of selected compounds of the general formula (I) according to tables I.1 to I.50 on various harmful plants and an application rate corresponding to 80 g/ha or lower that were obtained by the aforementioned trial method.” for “plants.”

Stellaria media [14] = assay: as above; settings: application rate 80 g/ha
Method: as §1, with “plants. Tables A1 to A16 below show the efficacies of selected compounds of the general formula (I) according to tables I.1 to I.50 on various harmful plants and an application rate corresponding to 80 g/ha or lower that were obtained by the aforementioned trial method.” for “plants.”

Echinochloa crus-galli [15] = assay: as above; settings: application rate 80 g/ha
Method: as §1, with “plants. Tables A1 to A16 below show the efficacies of selected compounds of the general formula (I) according to tables I.1 to I.50 on various harmful plants and an application rate corresponding to 80 g/ha or lower that were obtained by the aforementioned trial method.” for “plants.”

Amaranthus retroflexus [16] = assay: as above; settings: application rate 80 g/ha
Method: as §1, with “plants. Tables A1 to A16 below show the efficacies of selected compounds of the general formula (I) according to tables I.1 to I.50 on various harmful plants and an application rate corresponding to 80 g/ha or lower that were obtained by the aforementioned trial method.” for “plants.”

Matricaria inodora [17] = assay: as above; settings: application rate 80 g/ha
Method: as §1, with “plants. Tables A1 to A16 below show the efficacies of selected compounds of the general formula (I) according to tables I.1 to I.50 on various harmful plants and an application rate corresponding to 80 g/ha or lower that were obtained by the aforementioned trial method.” for “plants.”

Setaria viridis [18] = assay: as above
Method: as §1, with “plants. Tables A1 to A16 below show the efficacies of selected compounds of the general formula (I) according to tables I.1 to I.50 on various harmful plants and an application rate corresponding to 80 g/ha or lower that were obtained by the aforementioned trial method.” for “plants.”

Pharbitis purpurea [19] = assay: as above; settings: application rate 80 g/ha
Method: as §1, with “plants. Tables A1 to A16 below show the efficacies of selected compounds of the general formula (I) according to tables I.1 to I.50 on various harmful plants and an application rate corresponding to 80 g/ha or lower that were obtained by the aforementioned trial method.” for “plants.”

Abutilon theophrasti [20] = assay: as above; settings: application rate 80 g/ha
Method: as §1, with “plants. Tables A1 to A16 below show the efficacies of selected compounds of the general formula (I) according to tables I.1 to I.50 on various harmful plants and an application rate corresponding to 80 g/ha or lower that were obtained by the aforementioned trial method.” for “plants.”

Alopecurus myosuroides [21] = assay: as above; settings: application rate 80 g/ha, scored visually after about 3 weeks vs untreated controls
Method: as §1, with “plants. Tables A1 to A16 below show the efficacies of selected compounds of the general formula (I) according to tables I.1 to I.50 on various harmful plants and an application rate corresponding to 80 g/ha or lower that were obtained by the aforementioned trial method.” for “plants.”

Viola tricolor [22] = assay: as above; settings: application rate 80 g/ha
Method: as §1, with “plants. Tables A1 to A16 below show the efficacies of selected compounds of the general formula (I) according to tables I.1 to I.50 on various harmful plants and an application rate corresponding to 80 g/ha or lower that were obtained by the aforementioned trial method.” for “plants.”

Row | SMILES | Matricaria inodora (Efficacy in %) (Matricaria inodora [1]) | Veronica persica (Efficacy in %) (Veronica persica [2]) | Viola tricolor (Efficacy in %) (Viola tricolor [3]) | Polygonum convolvulus (Efficacy in %) (Polygonum convolvulus [4]) | Avena fatua (Efficacy in %) (Avena fatua) | Stellaria media (Efficacy in %) (Stellaria media [5]) | Echinochloa crus-galli (Efficacy in %) (Echinochloa crus-galli [6]) | Amaranthus retroflexus (Efficacy in %) (Amaranthus retroflexus [7]) | Lolium rigidum (Efficacy in %) (Lolium rigidum) | Setaria viridis (Efficacy in %) (Setaria viridis [8]) | Pharbitis purpurea (Efficacy in %) (Pharbitis purpurea [9]) | Hordeum murinum (Efficacy in %) (Hordeum murinum) | Abutilon theophrasti (Efficacy in %) (Abutilon theophrasti [10]) | Veronica persica (Efficacy in %) (Veronica persica [12]) | Polygonum convolvulus (Efficacy in %) (Polygonum convolvulus [13]) | Stellaria media (Efficacy in %) (Stellaria media [14]) | Echinochloa crus-galli (Efficacy in %) (Echinochloa crus-galli [15]) | Amaranthus retroflexus (Efficacy in %) (Amaranthus retroflexus [16]) | Matricaria inodora (Efficacy in %) (Matricaria inodora [17]) | Pharbitis purpurea (Efficacy in %) (Pharbitis purpurea [19]) | also measured
1 | COC(=O)C(C)(C)OC(=O)C(C)Sc1cc(-n2c(=O)cc(C(F)(F)F)n(C)c2=O)c(F)cc1Cl (stereo not drawn) [I.1-132] | 100% | 100% | 100% | 100% | 90% | 100% | 100% | 100% | 100% | 100% | 100% | 80% | 100% | 100% | 100% | 100% | 100% | 100% | 90% | 100% | Zea mays (Efficacy in %) (Zea mays; application rate 20 g/ha): 20%; Triticum aestivum (Efficacy in %) (Triticum aestivum; application rate 20 g/ha): 10%; Oryza sativa (Efficacy in %) (Oryza sativa; application rate 80 g/ha): 20%; Alopecurus myosuroides (Efficacy in %) (Alopecurus myosuroides [11]): 100%; Setaria viridis (Efficacy in %) (Setaria viridis [18]; application rate 80 g/ha): 100%; Abutilon theophrasti (Efficacy in %) (Abutilon theophrasti [20]): 100%; Alopecurus myosuroides (Efficacy in %) (Alopecurus myosuroides [21]): 80%
2 | CC(Sc1cc(-n2c(=O)cc(C(F)(F)F)n(C)c2=O)c(F)cc1Cl)C(=O)OC1CCOC1=O (stereo not drawn) [I.1-141] | 100% | 100% | 100% | 100% | 80% | 100% | 100% | 100% | 100% | 100% | 100% | 100% | 100% | 100% | 100% | 100% | 100% | 100% | 100% | 100% | Zea mays (Efficacy in %) (Zea mays; application rate 5 g/ha): 10%; Triticum aestivum (Efficacy in %) (Triticum aestivum; application rate 20 g/ha): 20%; Oryza sativa (Efficacy in %) (Oryza sativa; application rate 20 g/ha): 0%; Alopecurus myosuroides (Efficacy in %) (Alopecurus myosuroides [11]): 80%; Setaria viridis (Efficacy in %) (Setaria viridis [18]; application rate 20 g/ha): 100%; Abutilon theophrasti (Efficacy in %) (Abutilon theophrasti [20]): 100%; Alopecurus myosuroides (Efficacy in %) (Alopecurus myosuroides [21]): 90%
3 | CC(Sc1cc(-n2c(=O)cc(C(F)(F)F)n(C)c2=O)c(F)cc1Cl)C(=O)OCCC(N)=O (stereo not drawn) [I.1-151] | 100% | 100% | 100% | 100% | 90% | 100% | 100% | 100% | 90% | 100% | 100% | 80% | 100% | 100% | 100% | 90% | 100% | 100% | 100% | 100% | Zea mays (Efficacy in %) (Zea mays; application rate 5 g/ha): 20%; Triticum aestivum (Efficacy in %) (Triticum aestivum; application rate 80 g/ha): 20%; Oryza sativa (Efficacy in %) (Oryza sativa; application rate 20 g/ha): 10%; Viola tricolor (Efficacy in %) (Viola tricolor [22]): 100%; Setaria viridis (Efficacy in %) (Setaria viridis [18]; application rate 80 g/ha): 100%; Abutilon theophrasti (Efficacy in %) (Abutilon theophrasti [20]): 100%; Alopecurus myosuroides (Efficacy in %) (Alopecurus myosuroides [21]): 90%
